Reference: the supplement of paper PMC11061612

Legend:
[1] = system: OVTOKO (Ovarian Carcinoma); assay: Bliss excess, mean over the matrix (fraction); higher = more synergy
Procedure, shortened: (§1)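 Cell lines grown in DMEM/F12 or RPMI with 10% FBS were plated in 1536-well plates and held 24 hours at 37°C, 5% CO2 before 72 hours of exposure to two-drug dose matrices, with DMSO typically at 0.2%. CellTiter-Glo 2.0 luminescence gave viability, which was converted to inhibition. Vehicle wells were set to 0 and blank wells to 1. Combination Emax is the second-highest inhibition in the matrix, and Bliss excess is the observed combination effect minus the expected EA + EB − EA·EB, where EA and EB are the single-agent effects.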

[2] = system: OCI-AML5 (Acute Myeloid Leukemia); assay: as above
Procedure, shortened: as §1

[3] = system: AN3-CA (Endometrial Carcinoma); assay: as above
Procedure, shortened: as §1

[4] = system: CML-T1 (Chronic Myelogenous Leukemia); assay: as above
Procedure, shortened: as §1

[5] = system: RMG-I (Ovarian Carcinoma); assay: as above
Procedure, shortened: as §1

[6] = system: COLO-684 (Endometrial Carcinoma); assay: as above
Procedure, shortened: as §1

[7] = system: SNU-175 (Colorectal Carcinoma); assay: as above
Procedure, shortened: as §1

[8] = system: EB-3 (Burkitt's Lymphoma); assay: as above
Procedure, shortened: as §1

[9] = system: SW684 (Other Solid Carcinomas); assay: as above
Procedure, shortened: as §1

[10] = system: HTC-C3 (Thyroid Gland Carcinoma); assay: as above
Procedure, shortened: as §1

ES-2 (Ovarian Carcinoma) = assay: as above
Procedure, shortened: as §1

[11] = system: OV-90 (Ovarian Carcinoma); assay: as above
Procedure, shortened: as §1

[12] = system: JHH-1 (Hepatocellular Carcinoma); assay: as above
Procedure, shortened: as §1

[13] = system: NKM-1 (Acute Myeloid Leukemia); assay: as above
Procedure, shortened: as §1

CHL-1 (Melanoma) = assay: as above
Procedure, shortened: as §1

[14] = system: PANC-02-03 (Pancreatic Carcinoma); assay: as above
Procedure, shortened: as §1

[15] = system: SJRH30 (Rhabdomyosarcoma); assay: as above
Procedure, shortened: as §1

[16] = system: NCI-H1155 (Non-Small Cell Lung Carcinoma); assay: combination Emax (second highest fraction inhibited in the dose matrix, 72 h); higher = more inhibition; extreme values may be limits of the assay
Procedure, shortened: as §1

[17] = system: LAMA-84 (Chronic Myelogenous Leukemia); assay: as above
Procedure, shortened: as §1
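For Bliss excess, mean over the matrix in this document: after 72 h of two-drug dosing.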

COc1nnc2ccc(N3CCC(c4ccc(OCCN5CCN(C)C(=O)[C@H]5C)cc4)CC3)nn12 [AZD5153] + Cc1c2c(nn1C)CSCc1cc(n(C)n1)CSc1cc(c3ccccc3c1)OCCCc1c(C(=O)O)n(C)c3c-2c(Cl)ccc13 [AZD5991] (first compound max 1 µM, 7x7, partner max 1 µM)
Bliss excess [1]: -0.0536 | Bliss excess [2]: 0.134 | Bliss excess [3]: -0.0205 | Bliss excess [4]: 0.0065 | Bliss excess [5]: -0.0553 | Bliss excess [6]: -0.0106 | Bliss excess [7]: 0.0113 | Bliss excess [8]: -0.0048 | Bliss excess [9]: -0.108 | Bliss excess [10]: -0.0441 | Bliss excess (ES-2 (Ovarian Carcinoma)): -0.0534 | Bliss excess [11]: -0.0389 | Bliss excess [12]: 0.106 | Bliss excess [13]: -0.0491 | Bliss excess (CHL-1 (Melanoma)): 0.0613 | Bliss excess [14]: -0.0493 | Bliss excess [15]: 0.0045 | combination Emax [16]: 0.646 | combination Emax [17]: 0.928

COc1nnc2ccc(N3CCC(c4ccc(OCCN5CCN(C)C(=O)[C@H]5C)cc4)CC3)nn12 [AZD5153] + Cn1cnc2c(F)c(Nc3ccc(Br)cc3Cl)c(C(=O)NOCCO)cc21 [Selumetinib] (first compound max 1 µM, 7x7, partner max 10 µM)
Bliss excess [1]: -0.0591 | Bliss excess [2]: 0.0945 | Bliss excess [3]: -0.0484 | Bliss excess [4]: -0.14 | Bliss excess [5]: -0.0486 | Bliss excess [6]: -0.0134 | Bliss excess [7]: -0.0007 | Bliss excess [8]: -0.0591 | Bliss excess [9]: -0.0187 | Bliss excess [10]: -0.0464 | Bliss excess (ES-2 (Ovarian Carcinoma)): 0.0345 | Bliss excess [11]: -0.0203 | Bliss excess [12]: 0.0139 | Bliss excess [13]: 0.0071 | Bliss excess (CHL-1 (Melanoma)): 0.0049 | Bliss excess [14]: 0.0742 | Bliss excess [15]: 0.0152 | combination Emax [16]: 0.686 | combination Emax [17]: 1

NC1(C(=O)N[C@@H](CCO)c2ccc(Cl)cc2)CCN(c2ncnc3[nH]ccc23)CC1 [Capivasertib] + CC(=O)c1c(C)c2cnc(Nc3ccc(N4CCNCC4)cn3)nc2n(C2CCCC2)c1=O [Palbociclib] (first compound max 10 µM, 7x7, partner max 10 µM)
Bliss excess [1]: -0.0688 | Bliss excess [2]: -0.0096 | Bliss excess [3]: -0.0282 | Bliss excess [4]: 0.0054 | Bliss excess [5]: -0.0098 | Bliss excess [6]: -0.0759 | Bliss excess [7]: -0.0442 | Bliss excess [8]: -0.0328 | Bliss excess [9]: 0.0176 | Bliss excess [10]: 0.0437 | Bliss excess (ES-2 (Ovarian Carcinoma)): 0.0008 | Bliss excess [11]: -0.0562 | Bliss excess [12]: -0.0687 | Bliss excess [13]: -0.0204 | Bliss excess (CHL-1 (Melanoma)): -0.0082 | Bliss excess [14]: -0.0351 | Bliss excess [15]: -0.0084 | combination Emax [16]: 0.566 | combination Emax [17]: 0.558

NC1(C(=O)N[C@@H](CCO)c2ccc(Cl)cc2)CCN(c2ncnc3[nH]ccc23)CC1 [Capivasertib] + CC(C)n1c(=O)n(C)c2cnc3cc(F)c(-c4ccc(OCCCN5CCCCC5)nc4)cc3c21 [AZD1390] (first compound max 10 µM, 7x7, partner max 0.3 µM)
Bliss excess [1]: -0.0752 | Bliss excess [2]: -0.0369 | Bliss excess [3]: -0.0057 | Bliss excess [4]: 0.003 | Bliss excess [5]: -0.062 | Bliss excess [6]: -0.0909 | Bliss excess [7]: -0.0346 | Bliss excess [8]: 0.0022 | Bliss excess [9]: -0.0057 | Bliss excess [10]: -0.0216 | Bliss excess (ES-2 (Ovarian Carcinoma)): -0.0648 | Bliss excess [11]: -0.0325 | Bliss excess [12]: -0.0495 | Bliss excess [13]: -0.111 | Bliss excess (CHL-1 (Melanoma)): -0.0209 | Bliss excess [14]: -0.013 | Bliss excess [15]: -0.0373 | combination Emax [16]: 0.357 | combination Emax [17]: 0.328

NC1(C(=O)N[C@@H](CCO)c2ccc(Cl)cc2)CCN(c2ncnc3[nH]ccc23)CC1 [Capivasertib] + CCN(CCO)CCCOc1ccc2c(Nc3cc(CC(=O)Nc4cccc(F)c4)[nH]n3)ncnc2c1 [AZD2811] (first compound max 10 µM, 7x7, partner max 1 µM)
Bliss excess [1]: -0.0109 | Bliss excess [2]: -0.0465 | Bliss excess [3]: 0.0151 | Bliss excess [4]: -0.0597 | Bliss excess [5]: -0.0214 | Bliss excess [6]: 0.0272 | Bliss excess [7]: 0.0058 | Bliss excess [8]: 0.0152 | Bliss excess [9]: -0.0532 | Bliss excess [10]: -0.015 | Bliss excess (ES-2 (Ovarian Carcinoma)): -0.0018 | Bliss excess [11]: -0.0272 | Bliss excess [12]: -0.0517 | Bliss excess [13]: -0.0299 | Bliss excess (CHL-1 (Melanoma)): -0.0092 | Bliss excess [14]: -0.0261 | Bliss excess [15]: 0.0224 | combination Emax [16]: 0.864 | combination Emax [17]: 0.612

NC1(C(=O)N[C@@H](CCO)c2ccc(Cl)cc2)CCN(c2ncnc3[nH]ccc23)CC1 [Capivasertib] + COc1nnc2ccc(N3CCC(c4ccc(OCCN5CCN(C)C(=O)[C@H]5C)cc4)CC3)nn12 [AZD5153] (first compound max 10 µM, 7x7, partner max 1 µM)
Bliss excess [1]: 0.0497 | Bliss excess [2]: 0.0552 | Bliss excess [3]: 0.0778 | Bliss excess [4]: -0.0125 | Bliss excess [5]: -0.0448 | Bliss excess [6]: -0.0133 | Bliss excess [7]: -0.055 | Bliss excess [8]: -0.0529 | Bliss excess [9]: 0.004 | Bliss excess [10]: 0.0265 | Bliss excess (ES-2 (Ovarian Carcinoma)): 0.0199 | Bliss excess [11]: 0.0045 | Bliss excess [12]: -0.0072 | Bliss excess [13]: -0.0157 | Bliss excess (CHL-1 (Melanoma)): 0.0143 | Bliss excess [14]: 0.0132 | Bliss excess [15]: 0.0117 | combination Emax [16]: 0.822 | combination Emax [17]: 0.907

CC(=O)c1c(C)c2cnc(Nc3ccc(N4CCNCC4)cn3)nc2n(C2CCCC2)c1=O [Palbociclib] + CN(CC[C@H](CSC1=CC=CC=C1)NC2=C(C=C(C=C2)S(=O)(=O)NC(=O)C3=CC=C(C=C3)N4CCC(CC4)[C@H](C5=CC=CC=C5C6=CC=C(C=C6)Cl)O)S(=O)(=O)C(F)(F)F)CCO [AZD4320] (first compound max 10 µM, 7x7, partner max 1 µM)
Bliss excess [1]: -0.0621 | Bliss excess [2]: -0.0327 | Bliss excess [3]: 0.0108 | Bliss excess [7]: -0.0082 | Bliss excess [10]: -0.0712 | Bliss excess (ES-2 (Ovarian Carcinoma)): -0.0649 | Bliss excess [12]: -0.0291 | Bliss excess [15]: -0.0467 | combination Emax [16]: 0.994

C[C@@H](c1ccc2nccn2c1)n1nnc2ncc(-c3cnn(C)c3)nc21 [Savolitinib] + CN(CC[C@H](CSC1=CC=CC=C1)NC2=C(C=C(C=C2)S(=O)(=O)NC(=O)C3=CC=C(C=C3)N4CCC(CC4)[C@H](C5=CC=CC=C5C6=CC=C(C=C6)Cl)O)S(=O)(=O)C(F)(F)F)CCO [AZD4320] (first compound max 1 µM, 7x7, partner max 1 µM)
Bliss excess [1]: -0.0718 | Bliss excess [2]: -0.0418 | Bliss excess [3]: -0.0575 | Bliss excess [7]: -0.045 | Bliss excess [10]: -0.0215 | Bliss excess (ES-2 (Ovarian Carcinoma)): -0.0383 | Bliss excess [12]: -0.0341 | Bliss excess [15]: -0.0203 | combination Emax [16]: 0.582
